Test results reported in patent publication US11202751B2, “Whitening cosmetic composition comprising Caragana sinica root extract” (CELLTRION, INC., priority 2015, dated 2021).

Columns and labels:
[1] = test system: tyrosinase, isolated and refined from a mushroom; assay: Tyrosinase activity inhibition (absorbance at 475 nm, L-tyrosine substrate); format: biochemical
Experimental: A tyrosinase is an enzyme that promotes an oxidization process of a substance called tyrosine in vivo to produce a melanin. […] After that, 0.5 ml of a resulting L-tyrosine solution was inserted into a test tube, after which 0.5 ml of a sample fluid of the above Caragana Sinica root extract and the fraction thereof was added thereto, such that the test tube of a resulting mixture was left alone in a 37° C. constant temperature chamber for 10 minutes. […] The reaction was stopped by placing the test tube containing that reaction solution on ice to be rapidly cooled down, after which an absorbance of the resulting product was measured with a spectrophotometer at a wavelength of 475 nm. Control group was one containing 0.5 ml of a buffer solution instead of the Caragana Sinica root extract, and the comparison target was arbutin, well-known as a skin whitening agent. At that time, an inhibition rate of tyrosinase activity (%) was calculated according to the following Mathematical formula 1, wherein results thereof were shown in the following Table 2. [formula] [formula]

[2] = test system: B16F1 melanin-forming cell; assay: Melanin production inhibition in B16F1 melanin-forming cells; format: cell-based; settings: Mus musculus, B16-F1, 72 hours, read-out: Inhibition rate of melanin production (%)
Excerpt: In order to confirm a whitening effect of the ethanol extract of Caragana Sinica root and the fraction thereof prepared in the above Examples 1 to 5, its effect on inhibiting a production of melanin was confirmed with regard to a B16F1 melanin-forming cell.
Specifically, the B16F1 melanin-forming cells, as a mouse-derived cell line, were obtained from American Type Culture Collection (ATCC) to use. The B16F1 melanin-forming cells were divided into a 6-well plate at a concentration of 2×10^5 per well, after which the cells were attached thereto, thus being divided at such a concentration as not to cause toxicity. […] After this 72-hour cultivation, the cells were taken off by trypsin-EDTA, after which the number of cells was measured, and then cells were collected by centrifugation. A quantification of melanin in cells was performed in such a way that modifying method of Lotan (Cancer Res., 40: 3345-3350, 1980). […] 1N NaOH (10% DMSO) was added to a cell lysate obtained through centrifugation (3,000 rpm, 10 minutes) so as to dissolve the extracted melanin, after which an absorbance of the melanin was measured by microplate reader at 405 nm, and the melanin was quantified to measure an inhibition rate of melanin production (%) of a sample. […]

[3] = test system: B16F1 melanin-forming cell; assay: Inhibition of α-MSH-induced melanin production in B16F1 cells; format: cell-based, mouse; settings: for IC50: B16F1, 70 to 74 hours
Experimental: Specifically, the B16F1 melanin-forming cells, as a mouse-derived cell line, were obtained from American Type Culture Collection (ATCC) to use. The B16F1 melanin-forming cells were divided into a 6-well plate at a concentration of 2×10^5 per well, after which the cells were attached thereto, thus being divided at such a concentration as not to cause toxicity. After that, the ethanol extract of Caragana Sinica root and the fraction thereof obtained from the above Examples 1 to 5 were treated at each concentration, and then being cultured for 72 hours. After this 72-hour cultivation, the cells were taken off by trypsin-EDTA, after which the number of cells was measured, and then cells were collected by centrifugation. A quantification of melanin in cells was performed in such a way that modifying method of Lotan (Cancer Res., 40: 3345-3350, 1980). A cell pallet was washed once with PBS, after which 1 ml of a homogenization buffer solution (50 mM sodium phosphate, pH6.8, 1% Triton X-100, 2 mM PMSF) was added thereto and swirled for 5 minutes to crush the cells. 1N NaOH (10% DMSO) was added to a cell lysate obtained through centrifugation (3,000 rpm, 10 minutes) so as to dissolve the extracted melanin, after which an absorbance of the melanin was measured by microplate reader at 405 nm, and the melanin was quantified to measure an inhibition rate of melanin production (%) of a sample. The inhibition rate of melanin production (%) of the B16F1 melanin-forming cell was calculated according to the following [Mathematical formula 2], wherein results thereof were indicated at Table 3.
In order to confirm whitening effect of α-viniferin isolated from the fraction of Caragana Sinica root of the above Example 4, its effect on inhibiting a production of melanin was confirmed with regard to a B16F1 melanin-forming cell.
Specifically, the α-viniferin isolated from the ethyl acetate fraction of the ethanol extract of Caragana Sinica root obtained from the above Example 4 or arbutin, and α-MSH, a stimulant of melanin production, were treated at the same time, after which an amount of melanin was measured in 70 to 74 hours later as describe in the above Example 2-2.

[4] = Stability of isolated α-viniferin at 50° C. (HPLC content); format: physicochemical; settings: for content by HPLC / content relative to initial: 50° C.
Experimental: In order to confirm a stability of α-viniferin, the α-viniferin isolated from the ethyl acetate fraction of the ethanol extract of Caragana Sinica root obtained from the above Experimental Example 1 was stored under a condition of 50° C. for 2 weeks, after which content changes thereof were observed through an HPLC analysis by the same method of the above Experimental Example 1. A control group was kobophenol A isolated from the Caragana Sinica root extract, which was stored under the same condition with that of the α-viniferin, after which content changes thereof were observed by the same method.

Row | Inhibition rate of tyrosinase activity (%) ([1]; sample concentration 0.05%) | Inhibition rate of tyrosinase activity (%) ([1]; sample concentration 0.1%) | Inhibition rate of tyrosinase activity (%) ([1]; sample concentration 0.2%) | IC50 ([3]; Mus musculus, B16-F1) [µM] | content change at high temperature (in words) ([4]; 50° C. for 2 weeks) | content by HPLC ([4]; 1 week) [ppm] | content relative to initial ([4]; 1 week) [%] | content by HPLC ([4]; 2 weeks) [ppm] | content relative to initial ([4]; 2 weeks) [%] | content by HPLC ([4]; Initial) [ppm] | Molecule | inhibition at 100 µg/mL ([2]; 100 μg/ml) [%] | inhibition at 200 µg/mL ([2]; 200 μg/ml) [%] | inhibition at 100 µM ([3]; Mus musculus, B16-F1, 100 μM, read-out: inhibition rate of melanin production induced by α-MSH) [%] | inhibition at 200 µM ([3]; Mus musculus, B16-F1, 200 μM, read-out: inhibition rate of melanin production induced by α-MSH) [%] | inhibition at 400 µM ([3]; Mus musculus, B16-F1, 400 μM, read-out: inhibition rate of melanin production induced by α-MSH) [%] | inhibition at 4 µM ([3]; Mus musculus, B16-F1, 4 μM, read-out: inhibition rate of melanin production induced by α-MSH) [%] | inhibition at 6 µM ([3]; Mus musculus, B16-F1, 6 μM, read-out: inhibition rate of melanin production induced by α-MSH) [%] | inhibition at 8 µM ([3]; Mus musculus, B16-F1, 8 μM, read-out: inhibition rate of melanin production induced by α-MSH) [%] | whitening effect on α-MSH-induced melanin production, times higher than that of arbutin ([3]; ratio of IC50 values vs arbutin)
1 | 21.2 | 38.4 | 78.7 | 242 | – | – | – | – | – | – | OC[C@H]1O[C@@H](Oc2ccc(O)cc2)[C@H](O)[C@@H](O)[C@@H]1O [Arbutin, arbutin] | 63.5 | 75.7 | 13 | 44 | 73 | – | – | – | –
2 | – | – | – | 7 | not decreased | 249.60 | 98.7 | 253.45 | 100.3 | 252.8 | Oc1ccc(C2Oc3cc(O)cc4c3[C@@H]2c2cc(O)cc3c2C(c2cc(O)cc5c2[C@@H]4[C@H](c2ccc(O)cc2)O5)[C@H](c2ccc(O)cc2)O3)cc1 (stereo partly drawn) [α-viniferin] | – | – | – | – | – | 8 | 21 | 63 | about 35 times
3 | – | – | – | – | – | 115.6 | 95.2 | 103.6 | 85.3 | 121.4 | kobophenol A | – | – | – | – | – | – | – | – | –
